Measurements: patent publication US7550506B2, “Amino acid derived prodrugs of propofol, compositions and uses thereof” (XenoPort, Inc., priority 2004, dated 2009)

Key:
[1] = system: pancreatin; conditions: 1% (w/v) pancreatin, substrate 5.0 μM, pH 7.5, 37° C.
Protocol: (§1) The stability of propofol prodrugs were evaluated in one or more in vitro systems using a variety of tissue preparations following methods known in the art. Tissues were obtained from commercial sources (e.g., Pel-Freez Biologicals, Rogers, Ark., or GenTest Corporation, Woburn, Mass.). Experimental conditions used for the in vitro studies are described in Table 1 below. Each preparation was incubated with test compound at 37° C. for one hour. Aliquots (50 μL) were removed at 0, 30, and 60 min and quenched with 0.1% trifluoroacetic acid in acetonitrile. Samples were then centrifuged and analyzed by LC/MS/MS (see Example 134 below for method details). Stability of drug conjugates towards specific enzymes (e.g., peptidases, etc.) were also assessed in vitro by incubation with the purified enzyme.
Pancreatin Stability: Stability studies were conducted by incubating conjugate (5 μM) with 1% (w/v) pancreatin (Sigma, P-1625, from porcine pancreas) in 0.025 M Tris buffer containing 0.5 M NaCl (pH 7.5) at 37° C. for 60 min. The reaction was stopped by addition of 2 volumes of methanol. After centrifugation at 14,000 rpm for 10 min, the supernatant was removed and analyzed by LC/MS/MS.

[2] = substrate 2.0 μM, 37° C.; for % of Propofol Released from Propofol Prodrugs after 60 min, Human Plasma: no cofactors; for % of Propofol Released from Propofol Prodrugs after 60 min, Human Liver S9 (0.5 mg/mL): NADPH
Protocol: as §1

[3] = Caco-2 homogenate S9 stability; assay type: in vitro ADME; conditions: Caco-2 homogenate S9 0.5 mg protein per mL, substrate 5.0 μM, 37° C.
Protocol: Caco-2 Homogenate S9 Stability: Caco-2 cells were grown for 21 days prior to harvesting. Culture medium was removed and cell monolayers were rinsed and scraped off into ice-cold 10 mM sodium phosphate/0.15 M potassium chloride, pH 7.4. Cells were lysed by sonication at 4° C. using a probe sonicator. Lysed cells were then transferred into 1.5 mL centrifuge vials and centrifuged at 9000 g for 20 min at 4° C. The resulting supernatant (Caco-2 cell homogenate S9 fraction) was aliquoted into 0.5 mL vials and stored at −80° C. until used.
For stability studies, prodrug (5 μM) was incubated in Caco-2 homogenate S9 fraction (0.5 mg protein per mL) for 60 min at 37° C. Concentrations of intact prodrug and released propofol were determined at zero time and 60 minutes using LC/MS/MS.

[4] = oral dosing in rats (Raoof et al. 1996); cited from earlier work

Compound | % of Propofol Released from Propofol Prodrugs after 60 min, Pancreatin [1] [%] | % of Propofol Released from Propofol Prodrugs after 60 min, Human Plasma [2] [%] | % of Propofol Released from Propofol Prodrugs after 60 min, Human Liver S9 (0.5 mg/mL) [2] [%] | % of Propofol Released from Propofol Prodrugs after 60 min, Caco-2 S9 [3] [%] | Share of the administered drug that undergoes first pass metabolism [4]
CC(C)c1cccc(C(C)C)c1OC(=O)OC(C)C(NC(=O)CN)C(=O)O (stereo not shown) [(10), H-Gly-Thr(γ-OC(O)OPropofol)-OH] | 43 | 2 | 2 | 30 | 
CC(C)c1cccc(C(C)C)c1OC(=O)OC(C)C(NC(=O)C(N)CCCCN)C(=O)O.Cl.Cl (stereo not shown) [(18), H-Lys-Thr(γ-OC(O)OPropofol)-OH Bis-Hydrochloride] | 1 | 12 | 32 | 33 | 
CC(C)c1cccc(C(C)C)c1OC(=O)OC(C)C(NC(=O)C(N)CCCN=C(N)N)C(=O)O.Cl.Cl.Cl (stereo not shown) [(23), H-Arp-Thr(γ-OC(O)OPropofol)-OH Tris-Hydrochloride] | 4 | 25 | 93 | 100 | 
CC(C)c1cccc(C(C)C)c1OC(=O)OC(C)C(NC(=O)C(N)CN)C(=O)O.Cl.Cl (stereo not shown) [(24), H-Dap-Thr(γ-OC(O)OPropofol)-OH Bis-Hydrochloride] | 0 | 0 | 1 | 21 | 
CC(C)c1cccc(C(C)C)c1OC(=O)OC(C)C(NC(=O)C(N)Cc1cnc[nH]1)C(=O)O.Cl.Cl (stereo not shown) [(25), H-His-Thr(γ-OC(O)OPropofol)-OH Bis-Hydrochloride] | 0 | 0 | 8 | 52 | 
CC(C)CC(N)C(=O)NC(C(=O)O)C(C)OC(=O)Oc1c(C(C)C)cccc1C(C)C.Cl (stereo not shown) [(26), H-Leu-Thr(γ-OC(O)OPropofol)-OH Hydrochloride] | 30 | 0 | 37 | 93 | 
CSCCC(N)C(=O)NC(C(=O)O)C(C)OC(=O)Oc1c(C(C)C)cccc1C(C)C.Cl (stereo not shown) [(27), H-Met-Thr(γ-OC(O)OPropofol)-OH Hydrochloride] | 0 | 0 | 0 | 20 | 
CC(C)c1cccc(C(C)C)c1OC(=O)OC(C)C(NC(=O)C(N)CCCN)C(=O)O.Cl.Cl (stereo not shown) [(28), H-Orn-Thr(γ-OC(O)OPropofol)-OH Bis-Hydrochloride] | 0 | 2 | 11 | 54 | 
CC(C)c1cccc(C(C)C)c1O [propofol, 2,6-diisopropylphenol] |  |  |  |  | approximately 90%
H-Ala-Thr(γ-OC(O)OPropofol)-OH Hydrochloride [(16)] |  |  |  | 33 | 
